Reference: the supplement of paper PMC13380429
± gives the standard deviation of the averaged measurements.

Tests used:
Conditions in all cases: 72 h
HepG2 [1] = experiment: drug sensitivity score (DSS) for viability; higher = more toxic; extreme values may be limits of the assay
U2OS [2] = experiment: as above
Vero E6 [3] = experiment: as above
Calu-3 [4] = experiment: as above
Caco-2 [5] = experiment: as above
HepG2 [6] = experiment: cell viability relative to DMSO; higher = less toxic
U2OS [7] = experiment: as above
Vero E6 [8] = experiment: as above
Calu-3 [9] = experiment: as above
Caco-2 [10] = experiment: as above
HepG2 [11] = experiment: relative viability EC50 (midpoint between 100% and the lowest measured viability); higher = less toxic
U2OS [12] = experiment: as above
Vero E6 [13] = experiment: as above
Calu-3 [14] = experiment: as above
Caco-2 [15] = experiment: as above

SMILES | drug sensitivity score (HepG2 [1]) | drug sensitivity score (U2OS [2]) | drug sensitivity score (Vero E6 [3]) | drug sensitivity score (Calu-3 [4]) | drug sensitivity score (Caco-2 [5]) | cell viability (HepG2 [6]; 1 nM) [%] | cell viability (HepG2 [6]; 10 nM) [%] | cell viability (HepG2 [6]; 100 nM) [%] | cell viability (HepG2 [6]; 1000 nM) [%] | cell viability (HepG2 [6]; 10000 nM) [%] | cell viability (U2OS [7]; 1 nM) [%] | cell viability (U2OS [7]; 10 nM) [%] | cell viability (U2OS [7]; 100 nM) [%] | cell viability (U2OS [7]; 1000 nM) [%] | cell viability (U2OS [7]; 10000 nM) [%] | cell viability (Vero E6 [8]; 1 nM) [%] | cell viability (Vero E6 [8]; 10 nM) [%] | cell viability (Vero E6 [8]; 100 nM) [%] | cell viability (Vero E6 [8]; 1000 nM) [%] | cell viability (Vero E6 [8]; 10000 nM) [%] | cell viability (Calu-3 [9]; 1 nM) [%] | cell viability (Calu-3 [9]; 10 nM) [%] | cell viability (Calu-3 [9]; 100 nM) [%] | cell viability (Calu-3 [9]; 1000 nM) [%] | cell viability (Calu-3 [9]; 10000 nM) [%] | cell viability (Caco-2 [10]; 1 nM) [%] | cell viability (Caco-2 [10]; 10 nM) [%] | cell viability (Caco-2 [10]; 100 nM) [%] | cell viability (Caco-2 [10]; 1000 nM) [%] | cell viability (Caco-2 [10]; 10000 nM) [%] | relative viability EC50 (HepG2 [11]) [µM] | relative viability EC50 (U2OS [12]) [µM] | relative viability EC50 (Vero E6 [13]) [µM] | relative viability EC50 (Calu-3 [14]) [µM] | relative viability EC50 (Caco-2 [15]) [µM]
Nc1nc2c(cnn2CCc2ccccc2)c2nc(-c3ccco3)nn12 | 14.9 | 0 | 0 | 0 | 4.1 | 97.7 | 101 | 90.9 | 25.5 | 12.7 | 98 | 99.8 | 92.7 | 98.6 | 100 | 107 | 99.8 | 98.2 | 99.6 | 96.1 | 88.2 | 100 | 95.7 | 113 | 90.7 | 96.7 | 104 | 93.5 | 78.3 | 67.5 | 0.354 | > 10 | > 10 | > 10 | 
O=C(O)c1ccc(S(=O)(=O)N(Cl)Cl)cc1 [halazone] | 0 | 0 | 0 | 0 | 3.5 | 97.1 | 94.1 | 110 | 107 | 100 | 101 | 95.6 | 98.7 | 95.6 | 102 | 107 | 108 | 106 | 97 | 96.7 | 106 | 99.6 | 95.4 | 94.7 | 107 | 112 | 93.5 | 84.2 | 90.1 | 90.8 | > 10 | > 10 | > 10 | > 10 | > 10
Cc1ccc(Cl)c(OCC(O)CNC(C)(C)C)c1 (stereo not given) [bupranolol] | 0 | 0 | 0 | 0 | 0 | 99.3 | 97.6 | 104 | 97.8 | 94.6 | 101 | 98.1 | 99.6 | 101 | 104 | 93.6 | 97.5 | 97.2 | 100 | 103 | 98.2 | 99.8 | 93.6 | 105 | 104 | 109 | 89 | 91.5 | 99.5 | 107 | > 10 | > 10 | > 10 | > 10 | > 10
CC(C)N[C@H]1CCn2c(=O)[nH]c3cccc(c32)[C@@H]1O [zilpaterol] | 0 | 0 | 0 | 0 | 0 | 104.9 ± 0.57 | 105.5 ± 0.78 | 104 ± 2 | 95.95 ± 0.071 | 105 ± 3 | 100 ± 2.1 | 99.1 ± 5.2 | 97.4 ± 3 | 98.6 ± 8.3 | 101 ± 3.3 | 98.1 ± 11 | 99.5 ± 0.28 | 94.8 ± 8.6 | 99 ± 7.4 | 104 ± 9.6 | 103 ± 1.5 | 97.2 ± 10 | 105 ± 1.1 | 93 ± 3.9 | 97.5 ± 0.42 | 92.8 ± 2.5 | 97.75 ± 0.071 | 100 ± 3.2 | 96.9 ± 2.5 | 95.3 ± 9.4 | > 10 | > 10 | > 10 | > 10 | > 10
O[C@H]1[C@H](O)[C@@H](O)[C@H](O)[C@@H](O)[C@H]1O [inositol] | 0 | 0 | 0 | 0 | 1 | 123 | 102 | 105 | 93.3 | 98.8 | 106 | 104 | 96.7 | 103 | 101 | 110 | 101 | 98.1 | 99.4 | 99.5 | 112 | 94.6 | 104 | 96.1 | 100 | 95.8 | 111 | 91 | 105 | 69.8 | > 10 | > 10 | > 10 | > 10 | 
O=C(c1ccc(F)c(F)c1Nc1ccc(I)cc1F)N1CC(O)([C@@H]2CCCCN2)C1 [cobimetinib] | 24.5 | 7.4 | 13 | 11.9 | 8.3 | 94.3 | 86.7 | 32.8 | 24.5 | 17.1 | 96.5 | 94.5 | 94.3 | 75.8 | 23.6 | 90.2 | 86.1 | 72.9 | 50.2 | 45.7 | 93.2 | 86.6 | 81.4 | 50.1 | 32.7 | 89.5 | 82.8 | 84.8 | 69.1 | 63.1 | 0.0341 | 1.43 | 0.0591 | 0.238 | 
NC(=O)NCCN1CCN(c2cccc(C(F)(F)F)c2)CC1 [fluprazine] | 0 | 0 | 0 | 0 | 2 | 93.3 | 112 | 110 | 97.7 | 109 | 102 | 103 | 94.3 | 101 | 99.9 | 103 | 99.5 | 110 | 110 | 104 | 105 | 97.6 | 101 | 91.7 | 99.5 | 107 | 86.5 | 85.3 | 96.8 | 72.3 | > 10 | > 10 | > 10 | > 10 | 
COC(=O)C1=C(C)NC(C)=C(C(=O)OC)C1c1ccccc1[N+](=O)[O-] [nifedipine] | 0 | 0 | 0 | 0 | 1.3 | 95.7 | 84.8 | 96.8 | 117 | 102 | 104 | 102 | 103 | 100 | 96.6 | 99.5 | 103 | 106 | 101 | 94.9 |  |  |  |  |  | 112 | 100 | 90.4 | 96.8 | 76.8 | > 10 | > 10 | > 10 | > 10 | > 10
Cc1cccc(C)c1NC(=O)CN1CCN(CCCC(c2ccc(F)cc2)c2ccc(F)cc2)CC1 [lidoflazine] | 1 | 0 | 0.2 | 0 | 1.1 | 99.5 | 109 | 108 | 96.2 | 80.9 | 105 | 103 | 101 | 107 | 92.7 | 117 | 106 | 102 | 98.2 | 87.4 | 106 | 113 | 112 | 102 | 88.4 | 83.7 | 99.5 | 84.9 | 105 | 68.2 | > 10 | > 10 | > 10 | > 10 | 
Oc1cc2c(cc1O)CN(C(=S)NCCc1ccc(Cl)cc1)CCC2 [capsazepine] | 0.1 | 0 | 0 | 0 | 2.5 | 103 | 114 | 107 | 100 | 86.9 | 98.2 | 103 | 97.3 | 101 | 97.7 | 101 | 101 | 101 | 92.2 | 98.8 | 107 | 103 | 110 | 104 | 92.6 | 90.9 | 98.4 | 91.2 | 90.2 | 65.8 | > 10 | > 10 | > 10 | > 10 | 
Cc1ccc(C(=O)N(CCCN)[C@@H](c2nc3cc(Cl)ccc3c(=O)n2Cc2ccccc2)C(C)C)cc1 [ispinesib] | 25.4 | 19.4 | 19.5 | 6.9 | 12.1 | 98.7 | 55.8 | 38.7 | 40 | 18.8 | 104 | 92.1 | 47.6 | 43.2 | 31.3 | 103 | 94 | 42.4 | 40.8 | 38.1 | 97.3 | 88.5 | 90.8 | 90 | 5.4 | 93.7 | 81.5 | 68.8 | 64 | 63.1 | 0.0173 | 0.0446 | 0.029 | 2.29 | 
O=C1NC(=O)c2cc(Nc3ccc(F)cc3)c(Nc3ccc(F)cc3)cc21 | 4 | 0 | 0 | 0.5 | 2.2 | 101 | 93.9 | 101 | 91.8 | 49.7 | 95 | 100 | 97.2 | 101 | 87.9 | 96.9 | 97.1 | 99.9 | 93.5 | 103 | 106 | 106 | 94.7 | 106 | 77.8 | 93.9 | 88.6 | 95.2 | 93.3 | 70.2 | 1.91 | > 10 | > 10 | > 10 | 
CC(C)c1nc(CN(C)C(=O)N[C@H](C(=O)N[C@@H](Cc2ccccc2)C[C@H](O)[C@H](Cc2ccccc2)NC(=O)OCc2cncs2)C(C)C)cs1 [Ritonavir] | 0 | 0 | 0 | 0.1 | 1.2 | 103 | 93.9 | 97.2 | 96.8 | 93.8 | 93.7 | 97.8 | 100 | 99.2 | 96.4 |  |  |  |  |  | 97.4 | 89.1 | 94.9 | 103 | 86.3 | 99.9 | 90.5 | 94.4 | 96.9 | 77.6 | > 10 | > 10 | > 10 | > 10 | > 10
CN(C)N(C)C(=O)[C@@]1(Cc2ccccc2)CCCN(C(=O)[C@@H](Cc2c[nH]c3ccccc23)NC(=O)C(C)(C)N)C1 [anamorelin] | 0 | 0 | 0 | 0 |  | 113 | 99.6 | 106 | 102 | 103 | 103 | 100 | 104 | 102 | 99.5 | 103 | 107 | 101 | 104 | 95.4 | 85.1 | 86.9 | 91.7 | 94.4 | 89.8 |  |  |  |  |  | > 10 | > 10 | > 10 | > 10 | 
